Experimental findings from publication PMC11892739, “Site-specific molecular glues for the 14-3-3/Tau pS214 protein–protein interaction via reversible covalent imine tethering” (RSC Medicinal Chemistry, 2025) are described below.

The structures appear in SMILES notation. Entries after “also recorded” stand apart in the source; their conditions may differ.

In this experiment the test system is 14-3-3γ/Tau pS214 interaction. Kind of experiment: Fluorescence anisotropy 14-3-3γ titration with compound and monovalent Tau pS214 peptide. It is filed as binding. The following applies: SF250μM with 14-3-3γ, 250 μM compound. The procedure: FA assays in which 14-3-3γ was titrated to a constant concentration of compound (250 μM) in the presence of the distinct monovalent Tau peptide (10 nM) were performed.
The determined stabilization factors are concentration-dependent (here 250 μM of compound) and might differ based on assay design. […] The app. α-factors of these compounds for both 14-3-3/Tau complexes were determined by 14-3-3γ titrations in the presence of varied concentrations of the particular compound (Fig. 5d and e). Both compounds reached saturation for both 14-3-3γ/Tau complexes enabling accurate determination of the α-factor. The app. α-factors of aldehydes 1 and 18 were plotted for both 14-3-3γ/Tau complexes to investigate phospho-binding site selective cooperativity (Fig. 5f and h). To do so, the stabilization factors at a given compound concentration were plotted against the compound concentration, leading to the determination of the app. α-factors. […]
chromatography (HisTrap high performance cartridges, Cytiva). Typically two 5 mL columns were used for a 2 L culture in which the lysate was loaded on the column, washed with 10 CV wash buffer (50 mM Hepes, pH 8.0, 300 mM NaCl, 25 mM imidazole, 2 mM βME), and eluted with several fractions (2-4 CV) of elution buffer (50 mM Hepes, pH 8.0, 300 mM NaCl, 250 mM imidazole, 2 mM βME). Fractions containing the 14-3-3 protein were combined and dialyzed into 25 mM HEPES pH 8.0, 200 mM NaCl, 10 mM MgCl2, 2 mM βME, followed by dialysis into 25 mM HEPES, 100 mM NaCl, 10 mM MgCl2, 500 μM TCEP (adjusted to pH 8.0). Dialyzed protein was concentrated to ∼40 mg/mL, analyzed by Q -Tof LC/MS, and aliquots were flash -frozen for storage at −80 °C. […]
0.1% (v/v) Tween20, 0.1% (w/v) BSA). Dilution series were made in polystyrene low -volume 384 -well plates (Corning #4514, Black Round Bottom). Measurements were performed directly after plate preparation, using a Tecan SPARK plate reader at room temperature ( λex: 485±20 nm; λem: 535±25 nm; mirror: automatic; flashes: 30; settle time: 1 ms; gain: optimal; Z -position: calculated from well). Wells containing only fluorescein labelled peptide were used to set as G -factor calibrated from these wells. All data were analyzed using GraphPad Prism (10.0.1) and fitted with a four -parameter logistic model (4PL) to determine binding affinities (dissociation constant, KD). All data shown is background corrected for the signal without 14 -3-3ζ and the mean and standard deviation of technical duplicate is plotted, assay performed in a scientific duplicate for hit compounds.
Fluorescence Anisotropy – 14-3-3 titrations in the presence of compound To characterize the affinity of the Tau peptides for 14-3-3 in the presence of compound, 14-3-3ζ or γ was titrated in a 2-fold dilution series starting at 400 (for the 14-3-3ζ titrations to Tau pS2) or 800 (for the 14-3-3γ titrations to Tau pS214 or pS324) µM. 14-3-3 was added to 10 nM of fluorescein-labeled peptide (Tau pS2, Tau pS214 or Tau pS324) in the presence of 250 µM compound (1% DMSO). The assays were performed in a similar way as described above. Data shown is the average and standard deviation of a technical duplicate, top plateau corrected where needed, assay performed in a scientific duplicate. […]
The peptide screen was performed in a similar way as the 14-3-3ζ titration in the precence of compound.
14-3-3ζ was titrated in a 2-fold dilution series (starting at 400 µM 14-3-3ζ) to 100 nM of fluorescein-labeled peptides and 250 µM compound 18 (1% DMSO) in FA buffer (10 mM HEPES pH 7.4, 150 mM […]
Data shown is the average of a scientific triplicate. […]
DSF was performed using 40 µl samples containing 2.5 µM 14 -3-3ζ, 25 µM Tau peptide (Tau pS2, Tau pS214 or Tau pS324), […] (1% DMSO) and 5x ProteoOrange (Lumiprobe, 5000x stock in DMSO) in 10 mM HEPES, 150 mM NaCl, 50 µM TCEP (pH 7.4). The samples were heated from 35 °C to 79°C at a rate of 0.3 °C per 15 s in a C FX96 Touch Real-Time PCR Detection System (Bio -Rad). Fluorescence […]
On the technique in general: In fluorescence polarisation assays a small probe gives low polarisation when free and higher when bound to something large.
For the compound `CCc1ccc(-c2nccn2-c2ccc(C=O)c(Br)c2)cc1` [Compound 18], the “phospho-binding site preference Tau pS214 versus Tau pS324 (in words)” value is “significantly greater extent; also recorded: highest stabilization selectivity for the 14-3-3γ/Tau pS214 complex”. For `O=Cc1ccc(-n2ccnc2-c2ccccc2)cc1Br` [Compound 1], the “phospho-binding site preference Tau pS214 versus Tau pS324 (in words)” value is given as “did not show a difference in stabilization”. Take `Cc1cccc(-c2nccn2-c2ccc(C=O)c(Br)c2)c1` [Compound 6]: the “phospho-binding site preference Tau pS214 versus Tau pS324 (in words)” value was “no significant preference”. Take `O=Cc1ccc(-n2ccnc2-c2ccc(Cl)cc2)cc1Br` [Compound 14]: the “phospho-binding site preference Tau pS214 versus Tau pS324 (in words)” value is “significantly greater extent; also recorded: preference for Tau pS214”. The value for `O=Cc1ccc(-n2ccnc2-c2ccc(I)cc2)cc1Br` [Compound 15] was “significantly greater extent; also recorded: preference for Tau pS214”. The value for `Cc1ccc(-c2nccn2-c2ccc(C=O)c(Br)c2)cc1` [Compound 11] was “significantly greater extent”. The value for `O=Cc1ccc(-n2ccnc2-c2ccc(F)cc2)cc1Br` [Compound 13] was “no preference for Tau pS214”; that for `N#Cc1ccc(-c2nccn2-c2ccc(C=O)c(Br)c2)cc1` [Compound 22] was “preference for Tau pS214”.
